Tests used:
hMC4R [1] = molecular target: T1, hMC4R (Homo sapiens, UniProt P32245); settings: ref [51]; cited from earlier work
T1 construct: expressed in transfected cells; host or cells: HEK293T

omMc4ra1 [2] = assay: Ligand-binding assay (displacement of 125I-NDP-MSH), omMc4ra1; design: species or system rainbow trout (Oncorhynchus mykiss); settings: AgRP 10^-12 to 10^-7 M, MCL0020 and Ipsen 5i 10^-11 to 10^-6 M, ML00253764 10^-10 to 10^-5 M, transfected HEK293T cells
Experimental: (§1) Human Embryonic Kidney (HEK) 293T cells, provided by American Type Culture Collection (Manassas, VA, USA), were cultured as described previously. Cells were plated into 24-well or 6-well plates pre-coated with 0.1% gelatin and transfected with plasmids by the calcium phosphate precipitation method.
(§2) A binding assay was conducted as described previously. […].
(§3) Binding assays were used to investigate the binding properties of omMc4rs. […].  Figure 6 Ligand-binding properties of omMc4rs. […]. Data are expressed as % of hMC4R binding ± range from duplicate measurements within one experiment. The curves are representative of at least three independent experiments.

omMc4rb1 [3] = assay: Ligand-binding assay (displacement of 125I-NDP-MSH), omMc4rb1; design: species or system rainbow trout (Oncorhynchus mykiss); settings: displacement of 125I-NDP-MSH, transiently transfected HEK293T cells, 48 h after transfection, mean ± SEM of at least three independent experiments
Experimental: as §1, §2, §3

omMc4rb1 [4] = assay: Effect of antagonists on basal cAMP level, omMc4rb1; format: cell-based, rainbow trout (Oncorhynchus mykiss); settings: 10 nM AgRP, 1 μM MCL0020, 1 μM ML00253764 or 1 μM Ipsen 5i, 1 h, HEK293T, RIA, three independent experiments
Experimental: (§4) Cells were plated into 24-well or 6-well plates pre-coated with 0.1% gelatin and transfected with plasmids by the calcium phosphate precipitation method.
(§5) Intracellular cAMP levels were determined according to previous protocol.

ciMc4r [5] = settings: ref [51]; cited from earlier work
saMc4r [6] = settings: ref [51]; cited from earlier work
Text: (§6) Numerous constitutively active mutants have been reported in several GPCRs, resulting in various human diseases, and inverse agonism will be vital for correcting the diseases caused by activating mutations in GPCRs. The constitutive activity of teleost Mc4r may have important physiological functions.

ciMc4r [7] = settings: ref [51]; cited from earlier work; remark: listed apart in the source
Text: as §6

omMc4rb1 [8] = assay: ERK1/2 phosphorylation assay, omMc4rb1; format: cell-based, rainbow trout (Oncorhynchus mykiss)
Experimental: as §1
(§7) HEK293T cells were transfected with omMC4Rs. Twenty-four hours after transfection, cells were washed twice and starved in media without serum for 24 h. […] Rabbit anti-pERK1/2 antibody (Catalog #4370, Cell Signaling, Beverly, MA, USA) and mouse anti-β-tubulin antibody (Developmental Studies Hybridoma Bank, University of Iowa, Iowa City, IA, USA) were used in this study. The bound antibodies were quantified using ImageJ 1.44 software (National Institute of Health, Bethesda, MD, USA).
(§8) Figure 9 ERK1/2 signaling properties of trout Mc4rs. (A) Immunoblots of pERK1/2 in cells expressing omMc4ra1, omMc4ra2, omMc4rb1, or omMc4rb2. HEK293T cells were transiently transfected with omMc4ra1, omMc4ra2, omMc4rb1, omMc4rb2, or empty vector plasmids and were starved overnight 24 h after transfection. […] Western blots were performed as described in Materials and Methods. (B) Densitometry results of basal pERK1/2 levels of omMc4ra1, omMc4ra2, omMc4rb1, and omMc4rb2. (C) Densitometry results of pERK1/2 level of omMc4ra1. (D) Densitometry results of pERK1/2 level of omMc4ra2. (E) Densitometry results of pERK1/2 level of omMc4rb1. (F) Densitometry results of pERK1/2 level of omMc4rb2.

saMc4r [9] = settings: ref [51]; cited from earlier work; remark: listed apart in the source
omMc4ra1 [10] = assay: Effect of antagonists on basal cAMP level, omMc4ra1; format: cell-based, rainbow trout (Oncorhynchus mykiss); settings: 10 nM AgRP, 1 μM MCL0020, 1 μM ML00253764 or 1 μM Ipsen 5i, 1 h, HEK293T, RIA, three independent experiments
Experimental: as §4, §5

hMC4R [11] = molecular target: T1, hMC4R; assay: Ligand-binding assay (displacement of 125I-NDP-MSH), hMC4R; settings: hMC4R; displacement of 125I-NDP-MSH; transiently transfected HEK293T cells, 48 h after transfection; mean ± SEM of at least three independent experiments; read-out: IC50
Experimental: as §4
A binding assay was conducted as described previously.
Binding assays were used to investigate the binding properties of omMc4rs. […] Data are expressed as % of hMC4R binding ± range from duplicate measurements within one experiment. The curves are representative of at least three independent experiments.

hMC4R [12] = molecular target: T1, hMC4R; settings: cited from earlier work
saMc4r [13] = settings: saMc4r (spotted scat); ref [48],[51],[81]; cited from earlier work
Text: (§9) MC4R-mediated ERK1/2 signaling has a crucial role in the modulation of energy homeostasis. Although teleost Mc4rs have much higher basal activities in Gs-cAMP signaling, constitutive activation of ERK1/2 signaling is only observed in topmouth culter Mc4r but not in saMc4r and ciMc4r. […] Our data documented that these three compounds only activated ERK1/2 signaling of omMc4rb1 but not the other three omMc4rs (Figure 9).

ciMc4r [14] = settings: ciMc4r (grass carp); ref [48],[51],[81]; cited from earlier work
Text: as §9

hMC4R [15] = molecular target: T1, hMC4R; settings: ref [48],[51],[81]; cited from earlier work
Text: as §9

omMc4rb2 [16] = assay: ERK1/2 phosphorylation assay, omMc4rb2; format: cell-based, rainbow trout (Oncorhynchus mykiss); settings: 1 μM α-MSH, 10 nM AgRP, 1 μM MCL0020, 1 μM Ipsen 5i or 1 μM ML00253764, 5 min, HEK293T, Western blot, at least three independent experiments
Experimental: as §1, §7
as §8, with “(E) Densitometry results of pERK1/2 level of omMc4rb1. (F) Densitometry results of pERK1/2 level of omMc4rb2.” left out

omMc4rb2 [17] = assay: Effect of antagonists on basal cAMP level, omMc4rb2; format: cell-based, rainbow trout (Oncorhynchus mykiss); settings: 10 nM AgRP, 1 μM MCL0020, 1 μM ML00253764 or 1 μM Ipsen 5i, 1 h, HEK293T, RIA, three independent experiments
Experimental: as §4, §5

omMc4ra2 [18] = assay: Effect of antagonists on basal cAMP level, omMc4ra2; format: cell-based, rainbow trout (Oncorhynchus mykiss); settings: 10 nM AgRP, 1 μM MCL0020, 1 μM ML00253764 or 1 μM Ipsen 5i, 1 h, HEK293T, RIA, three independent experiments
Experimental: as §4, §5

omMc4rb2 [19] = assay: Ligand-binding assay (displacement of 125I-NDP-MSH), omMc4rb2; design: species or system rainbow trout (Oncorhynchus mykiss); settings: AgRP 10^-12 to 10^-7 M, MCL0020 and Ipsen 5i 10^-11 to 10^-6 M, ML00253764 10^-10 to 10^-5 M, transfected HEK293T cells
Experimental: as §1, §2, §3

omMc4ra2 [20] = assay: Ligand-binding assay (displacement of 125I-NDP-MSH), omMc4ra2; design: species or system rainbow trout (Oncorhynchus mykiss); settings: AgRP 10^-12 to 10^-7 M, MCL0020 and Ipsen 5i 10^-11 to 10^-6 M, ML00253764 10^-10 to 10^-5 M, transfected HEK293T cells
Experimental: as §1, §2, §3

omMc4ra2 [21] = assay: ERK1/2 phosphorylation assay, omMc4ra2; format: cell-based, rainbow trout (Oncorhynchus mykiss); settings: 1 μM α-MSH, 10 nM AgRP, 1 μM MCL0020, 1 μM Ipsen 5i or 1 μM ML00253764, 5 min, HEK293T, Western blot, at least three independent experiments
Experimental: as §1, §7
as §8, with “(E) Densitometry results of pERK1/2 level of omMc4rb1. (F) Densitometry results of pERK1/2 level of omMc4rb2.” left out

omMc4ra1 [22] = assay: ERK1/2 phosphorylation assay, omMc4ra1; format: cell-based, rainbow trout (Oncorhynchus mykiss); settings: 1 μM α-MSH, 10 nM AgRP, 1 μM MCL0020, 1 μM Ipsen 5i or 1 μM ML00253764, 5 min, HEK293T, Western blot, at least three independent experiments
Experimental: as §1, §7
as §8, with “(E) Densitometry results of pERK1/2 level of omMc4rb1. (F) Densitometry results of pERK1/2 level of omMc4rb2.” left out

T1 sequence (P32245 whole entry): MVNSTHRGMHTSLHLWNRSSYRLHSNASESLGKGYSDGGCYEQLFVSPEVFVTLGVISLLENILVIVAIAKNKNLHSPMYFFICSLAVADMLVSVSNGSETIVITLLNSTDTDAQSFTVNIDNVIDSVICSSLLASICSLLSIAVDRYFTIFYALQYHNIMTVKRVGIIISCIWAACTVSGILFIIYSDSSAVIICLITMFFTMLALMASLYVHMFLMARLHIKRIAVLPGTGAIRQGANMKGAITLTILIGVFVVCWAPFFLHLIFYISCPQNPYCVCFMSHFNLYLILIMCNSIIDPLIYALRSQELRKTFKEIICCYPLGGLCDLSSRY

**Q.** For CC(=O)N[C@H](Cc1ccc2ccccc2c1)C(=O)N[C@@H](CCCNC(=N)N)C(=O)N[C@@H](Cc1ccc2ccccc2c1)C(N)=O [MCL0020, Ac-D-2-Nal-Arg-2-Nal-NH2], which “NDP-MSH displacement” value (hMC4R [1]) is on record?
**A.** replaces NDP-MSH binding

**Q.** And the “displacement of 125I-NDP-MSH binding” value (omMc4ra1 [2])?
**A.** only displaced ^125I-NDP-MSH binding to hMC4R and omMc4rb1

**Q.** And the IC50 (omMc4rb1 [3])?
**A.** 0.305 ± 0.0662 µM

**Q.** What about the “effect on basal cAMP level” value (omMc4rb1 [4]) of the same compound?
**A.** no significant effect

**Q.** And the “NDP-MSH displacement” value (ciMc4r [5])?
**A.** replaces NDP-MSH binding

**Q.** What about the “basal and ligand-induced cAMP levels” value (saMc4r [6]) of the same compound?
**A.** no effect on basal and ligand-induced cAMP levels

**Q.** What about the “NDP-MSH-induced cAMP generation” value (ciMc4r [7]) of the same compound?
**A.** antagonizes NDP-MSH-induced cAMP generation

**Q.** What about the “basal cAMP production” value (ciMc4r [7]) of the same compound?
**A.** decreases the basal cAMP production of ciMc4r

**Q.** And the “effect on ERK1/2 phosphorylation” value (omMc4rb1 [8]; 1 μM α-MSH, 10 nM AgRP, 1 μM MCL0020, 1 μM Ipsen 5i or 1 μM ML00253764, 5 min, HEK293T, Western blot, at least three independent experiments)?
**A.** significantly increased

**Q.** And the “biased signaling, cAMP versus ERK1/2” value (omMc4rb1 [8]; concluded from binding, cAMP and pERK1/2 results)?
**A.** biased allosteric modulators for omMc4rb1 with selective activation on ERK1/2 signaling

**Q.** And the “NDP-MSH displacement” value (saMc4r [9])?
**A.** replaces NDP-MSH binding

**Q.** What about the “effect on basal cAMP level” value (omMc4ra1 [10]) of the same compound?
**A.** no significant effect

**Q.** What about the IC50 (hMC4R [11]) of the same compound?
**A.** 0.0623 ± 0.00482 µM

**Q.** And the “basal activity of hMC4R and constitutively active mutant hMC4Rs” value (hMC4R [12]; hMC4R and mutants, ref [1],[28],[48],[51])?
**A.** reduced by inverse agonists

**Q.** And the “type of ligand at hMC4R” value (hMC4R [12]; hMC4R, ref [51],[56],[79])?
**A.** neutral antagonist of hMC4R

**Q.** And the “biased signaling, Gs-cAMP versus ERK1/2” value (saMc4r [13])?
**A.** preferred activation on ERK1/2 signaling

**Q.** And the “biased signaling, Gs-cAMP versus ERK1/2” value (ciMc4r [14])?
**A.** preferred activation on ERK1/2 signaling

**Q.** What about the “biased signaling, Gs-cAMP versus ERK1/2” value (hMC4R [15]) of the same compound?
**A.** preferred activation on ERK1/2 signaling

**Q.** What about the “effect on ERK1/2 phosphorylation” value (omMc4rb2 [16]) of the same compound?
**A.** no effect

**Q.** What about the “effect on basal cAMP level” value (omMc4rb2 [17]) of the same compound?
**A.** no significant effect

**Q.** What about the “effect on basal cAMP level” value (omMc4ra2 [18]) of the same compound?
**A.** no significant effect

**Q.** And the “displacement of 125I-NDP-MSH binding” value (omMc4rb2 [19])?
**A.** only displaced ^125I-NDP-MSH binding to hMC4R and omMc4rb1

**Q.** What about the “displacement of 125I-NDP-MSH binding” value (omMc4ra2 [20]) of the same compound?
**A.** only displaced ^125I-NDP-MSH binding to hMC4R and omMc4rb1

**Q.** What about the “effect on ERK1/2 phosphorylation” value (omMc4ra2 [21]) of the same compound?
**A.** no effect

**Q.** What about the “effect on ERK1/2 phosphorylation” value (omMc4ra1 [22]) of the same compound?
**A.** not by ML00253764, Ipsen 5i, or MCL0020

Reference: publication PMC10452266, “Divergent Pharmacology and Biased Signaling of the Four Melanocortin-4 Receptor Isoforms in Rainbow Trout (Oncorhynchus mykiss)” (Biomolecules, 2023)
